In ChEMBL document CHEMBL1914436, “Synthesis and in vivo evaluation of cyclic diaminopropane BACE-1 inhibitors” (Bioorg Med Chem Lett, 2011):
Activity calls are given as the source filed them. The calls are words filed in the database; no cut-off is given here.

Key:
[1] = target: T1, Beta-secretase 1 (Homo sapiens, UniProt P56817); experiment: Inhibition of BACE-1
[2] = target: T1, Beta-secretase 1; experiment: Inhibition of BACE-1 in human HEK293 cells overexpressing APP 695 swedish mutation assessed as inhibition of amyloid beta (1 to 40) production by immunoprecipitation assay; format: cell-based
[3] = target: T1, Beta-secretase 1; experiment: Displacement of [3H]BMS-599240 from recombinant human BACE-1
[4] = target: T1, Beta-secretase 1; experiment: Inhibition of BACE-1 in human HEK293 cells overexpressing APP 695 swedish mutation assessed as inhibition of amyloid beta (1 to 40) production by ELISA method; format: cell-based
[5] = test system: Plasma; experiment: Antialzheimer activity in ip dosed rat assessed as reduction in plasma amyloid beta (1 to 40) level measured at 5 hrs post-dose; format: functional
[6] = test system: Plasma; experiment: Drug level in rat plasma at 30 mg/kg, ip; format: ADME, organism-based; design: dose 30 mg/kg, route intraperitoneal; conditions: in vivo, read-out: Drug uptake
[7] = Fraction unbound in rat plasma at 30 mg/kg, ip; format: ADME, organism-based; design: dose 30 mg/kg, route intraperitoneal
[8] = test system: Rattus norvegicus; experiment: Antialzheimer activity in rat assessed as reduction in brain amyloid beta (1 to 40) level up to 100 mg/kg, ip measured at 5 hrs post-dose; format: functional, organism-based; design: dose 100 mg/kg
[9] = Ratio of drug level in brain to plasma in rat at 100 mg/kg, ip at 5 hrs; format: ADME, organism-based; design: dose 100 mg/kg, route intraperitoneal; conditions: brain and plasma, read-out: BPR
[10] = test system: Brain; experiment: Drug level in rat brain at 100 mg/kg, ip; format: ADME, organism-based; design: dose 100 mg/kg, route intraperitoneal; conditions: in vivo, read-out: Drug uptake
[11] = Permeability from apical to basolateral side of human Caco2 cells; format: ADME, cell-based; conditions: Caco-2, read-out: permeability
[12] = Permeability from basolateral to apical side of human Caco2 cells; format: ADME, cell-based; conditions: Caco-2, read-out: permeability
[13] = Efflux ratio of permeability from basolateral to apical side to apical to basolateral side of human Caco2 cells; format: ADME, cell-based; conditions: Caco-2
[14] = Fraction unbound in sc dosed mouse plasma; format: ADME, organism-based
[15] = Fraction unbound in sc dosed rat plasma; format: ADME, organism-based
[16] = test system: Plasma; experiment: Total plasma concentration in rat at 3 mg/kg, sc; format: ADME, organism-based; design: dose 3 mg/kg, route subcutaneous; conditions: in vivo
[17] = test system: Plasma; experiment: Total plasma concentration in rat at 10 mg/kg, sc; format: ADME, organism-based; design: dose 10 mg/kg, route subcutaneous; conditions: in vivo
[18] = test system: Plasma; experiment: Total plasma concentration in rat at 100 mg/kg, sc; format: ADME, organism-based; design: dose 100 mg/kg, route subcutaneous; conditions: in vivo
[19] = test system: Rattus norvegicus; experiment: Antialzheimer activity in rat plasma assessed as amyloid beta (1 to 40) level at 3 mg/kg, sc relative to vehicle treated control; format: functional; conditions: route subcutaneous
[20] = test system: Rattus norvegicus; experiment: Antialzheimer activity in rat plasma assessed as amyloid beta (1 to 40) level at 10 mg/kg, sc relative to vehicle treated control; format: functional; conditions: route subcutaneous
[21] = test system: Rattus norvegicus; experiment: Antialzheimer activity in rat plasma assessed as amyloid beta (1 to 40) level at 100 mg/kg, sc relative to vehicle treated control; format: functional; conditions: route subcutaneous
[22] = test system: Rattus norvegicus; experiment: Antialzheimer activity in rat plasma assessed as reduction in amyloid beta (1 to 40) level at 3 mg/kg, sc relative to vehicle treated control; format: functional; design: scale not given: the % may be the effect or the level left; conditions: route subcutaneous
[23] = test system: Brain; experiment: Drug level in rat brain at 3 mg/kg, sc; format: ADME, organism-based; design: dose 3 mg/kg, route subcutaneous; conditions: in vivo, read-out: Drug uptake
[24] = test system: Brain; experiment: Drug level in rat brain at 10 mg/kg, sc; format: ADME, organism-based; design: dose 10 mg/kg, route subcutaneous; conditions: in vivo, read-out: Drug uptake
[25] = test system: Brain; experiment: Drug level in rat brain at 100 mg/kg, sc; format: ADME, organism-based; design: dose 100 mg/kg, route subcutaneous; conditions: in vivo, read-out: Drug uptake
[26] = test system: Rattus norvegicus; experiment: Antialzheimer activity in rat brain assessed as amyloid beta (1 to 40) level at 3 mg/kg, sc relative to vehicle treated control; format: functional; conditions: route subcutaneous
[27] = test system: Rattus norvegicus; experiment: Antialzheimer activity in rat brain assessed as amyloid beta (1 to 40) level at 10 mg/kg, sc relative to vehicle treated control; format: functional; conditions: route subcutaneous
[28] = test system: Rattus norvegicus; experiment: Antialzheimer activity in rat brain assessed as amyloid beta (1 to 40) level at 100 mg/kg, sc relative to vehicle treated control; format: functional; conditions: route subcutaneous
[29] = Ratio of drug level in brain to plasma in rat at 3 mg/kg, sc; format: ADME, organism-based; design: dose 3 mg/kg, route subcutaneous; conditions: brain and plasma, read-out: BPR
[30] = Ratio of drug level in brain to plasma in rat at 10 mg/kg, sc; format: ADME, organism-based; design: dose 10 mg/kg, route subcutaneous; conditions: brain and plasma, read-out: BPR
[31] = Ratio of drug level in brain to plasma in rat at 100 mg/kg, sc; format: ADME, organism-based; design: dose 100 mg/kg, route subcutaneous; conditions: brain and plasma, read-out: BPR
[32] = test system: Mus musculus; experiment: Antialzheimer activity in wild type mouse brain assessed as reduction in amyloid beta (1 to 40) level up to 100 mg/kg, sc; format: functional, organism-based; design: dose 100 mg/kg
[33] = test system: Mus musculus; experiment: Antialzheimer activity in sc dosed P-gp knockout mouse plasma assessed as reduction in amyloid beta (1 to 40) level after 5 hrs by ELISA; format: functional
[34] = test system: Mus musculus; experiment: Antialzheimer activity in sc dosed P-gp knockout mouse brain assessed as reduction in amyloid beta (1 to 40) level after 5 hrs by ELISA; format: functional

T1 sequence (P56817 whole entry): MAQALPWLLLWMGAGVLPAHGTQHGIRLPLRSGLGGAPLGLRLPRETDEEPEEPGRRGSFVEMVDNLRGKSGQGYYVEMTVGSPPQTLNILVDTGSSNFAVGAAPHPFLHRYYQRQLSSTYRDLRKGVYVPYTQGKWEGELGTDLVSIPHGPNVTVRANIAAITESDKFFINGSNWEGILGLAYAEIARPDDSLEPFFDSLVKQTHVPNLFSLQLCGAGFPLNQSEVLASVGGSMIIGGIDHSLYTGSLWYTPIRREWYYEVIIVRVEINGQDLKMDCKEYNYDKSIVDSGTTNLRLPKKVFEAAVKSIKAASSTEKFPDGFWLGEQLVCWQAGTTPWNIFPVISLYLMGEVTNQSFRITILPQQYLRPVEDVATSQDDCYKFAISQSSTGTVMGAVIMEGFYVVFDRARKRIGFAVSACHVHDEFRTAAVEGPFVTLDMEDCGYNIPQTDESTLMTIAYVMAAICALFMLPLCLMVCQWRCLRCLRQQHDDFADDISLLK

## CCCCN(C)C(=O)n1cc(C(=O)N[C@@H](Cc2cc(F)cc(F)c2)[C@H](O)[C@H]2Cc3ccccc3CN2)c2cccnc21
[1]
  IC50: 1.2 µM

## CCCN(CCC)C(=O)c1cc(C(=O)N[C@@H](Cc2cc(F)cc(F)c2)[C@H](O)[C@H]2C[C@@H](S(=O)(=O)CCC)CN2)cc(-c2ncco2)c1
[2]
  IC50: 0.068 µM

## CCC(C)[C@@]1(N)CCN([C@@H](CCc2ccccc2)C(=O)N[C@@H](CC(C)C)[C@@H](O)C[C@@H](C)C(=O)NCCCCc2ccccc2)C1=O (stereo partly drawn)
[1]
  IC50: 0.141 µM

## CCC(C)[C@@]1(NC(C)=O)CCN([C@@H](CCc2ccccc2)C(=O)N[C@@H](Cc2cc(F)cc(F)c2)[C@H](O)C2Cc3cccc(OC)c3CN2)C1=O (stereo partly drawn)
[1]
  IC50: 0.004 µM
[2]
  IC50: 0.02 µM

## CCC(C)[C@@]1(NC(C)=O)CCN([C@@H](CCc2ccccc2)C(=O)N[C@@H](Cc2cc(F)cc(F)c2)[C@H](O)C2Cc3cccc(O)c3CN2)C1=O (stereo partly drawn)
[1]
  IC50: 0.87 µM

## CCCC[C@@H]1CCN([C@@H](C)C(=O)N[C@@H](Cc2cc(F)cc(F)c2)[C@H](O)[C@H]2C[C@@H](S(=O)(=O)CCC)CN2)C1=O
[2]
  IC50: > 0.33 µM

## CC(=O)N[C@]1(CC(C)C)CCN([C@@H](CCc2ccccc2)C(=O)N[C@@H](Cc2cc(F)cc(F)c2)[C@H](O)C2Cc3ccccc3CN2)C1=O (stereo partly drawn)
[1]
  IC50: 0.008 µM
[2]
  IC50: 0.01 µM

## CCC(C)[C@@]1(NC(C)=O)CCN([C@@H](CCc2ccccc2)C(=O)N[C@@H](Cc2cc(F)cc(F)c2)[C@H](O)[C@H]2C[C@@H](S(=O)(=O)Cc3ccc(F)cc3)CN2)C1=O (stereo partly drawn)
[2]
  IC50: 0.003 µM

## CCCOc1cccc2c1CNC([C@@H](O)[C@H](Cc1cc(F)cc(F)c1)NC(=O)[C@H](CCc1ccccc1)N1CC[C@](NC(C)=O)(C(C)CC)C1=O)C2 (stereo partly drawn)
[1]
  IC50: 0.017 µM
[2]
  IC50: 0.14 µM

## CCCC[C@H]1CCN([C@@H](CCc2ccccc2)C(=O)N[C@@H](Cc2cc(F)cc(F)c2)[C@H](O)[C@H]2Cc3ccccc3CN2)C1=O
[1]
  IC50: 1 µM

## CCCS[C@H]1CN[C@@H]([C@@H](O)[C@H](Cc2cc(F)cc(F)c2)NC(=O)[C@H](CCc2ccccc2)N2CC[C@](NC(C)=O)(C(C)CC)C2=O)C1 (stereo partly drawn)
[2]
  IC50: 0.015 µM

## CCC(C)[C@@]1(NC(C)=O)CCN([C@@H](CCc2ccccc2)C(=O)N[C@@H](Cc2cc(F)cc(F)c2)[C@H](O)[C@@H]2Cc3ccccc3CN2)C1=O (stereo partly drawn)
[1]
  IC50: 0.6 µM

## CCC(C)[C@@]1(NC(C)=O)CCN([C@@H](CCc2ccccc2)C(=O)N[C@@H](Cc2cc(F)cc(F)c2)[C@H](O)CNCc2cccc(OC)c2)C1=O (stereo partly drawn)
[3]
  IC50: 0.002 µM
[4]
  IC50: 0.003 µM
[5]
  Activity: Dose-dependent effect
  ED50: 30 mg/kg
[6]
  concentration: 3.7 µM
[7]
  fraction unbound: 0.011
[8]
  Activity: inactive
[9]
  Kp at 5 h: < 0.05
[10]
  concentration: 0.113 µM
[11]
  Papp A→B: 75 nm/s
[12]
  Papp B→A: 114 nm/s
[13]
  efflux ratio: 1.5

## CCC(C)[C@@]1(NC(C)=O)CCN([C@@H](CCc2ccccc2)C(=O)N[C@@H](Cc2cc(F)cc(F)c2)[C@H](O)C2Cc3ccccc3CN2)C1=O (stereo partly drawn)
[1]
  IC50: 0.054 µM
[2]
  IC50: 0.11 µM

## CCC(C)[C@@]1(NC(C)=O)CCN([C@@H](CCc2ccccc2)C(=O)N[C@@H](Cc2ccccc2)[C@H](O)CNCc2cccc(OC)c2)C1=O (stereo partly drawn)
[3]
  IC50: 0.005 µM
[4]
  IC50: 0.011 µM

## CCCN(CCC)C(=O)c1cccc(C(=O)N[C@@H](Cc2cc(F)cc(F)c2)[C@H](O)[C@H]2Cc3ccccc3CN2)c1 (stereo in doubt; 15b)
[1]
  IC50: 1.6 µM

## CCC(C)[C@@]1(NC(C)=O)CCN([C@@H](CCc2ccccc2)C(=O)N[C@@H](Cc2cc(F)cc(F)c2)[C@H](O)[C@@H]2Cc3cccc(OC)c3CN2)C1=O (stereo partly drawn)
[1]
  IC50: 0.14 µM

## CCCS(=O)(=O)[C@@H]1CN[C@@H]([C@@H](O)[C@H](Cc2cc(F)cc(F)c2)NC(=O)[C@H](CCc2ccccc2)N2CC[C@](NC(C)=O)(C(C)CC)C2=O)C1 (stereo partly drawn)
[2]
  IC50: 0.045 µM

## CCCS(=O)(=O)[C@H]1CN[C@@H]([C@@H](O)[C@H](Cc2cc(F)cc(F)c2)NC(=O)[C@H](CCc2ccccc2)N2CC[C@](NC(C)=O)(C(C)CC)C2=O)C1 (stereo partly drawn)
[11]
  Papp A→B: < 15 nm/s
[12]
  Papp B→A: 58 nm/s
[13]
  efflux ratio: > 4
[2]
  IC50: 0.005 µM
[14]
  fraction unbound: 0.24
[15]
  fraction unbound: 0.3
[16]
  concentration: 0.16 µM
[17]
  concentration: 0.74 µM
[18]
  concentration: 5.8 µM
[19]
  Activity: 28%
[20]
  Activity: 10%
[21]
  Activity: 15%
[22]
  Activity: 72%
[23]
  concentration: 0.046 µM
[24]
  concentration: 0.078 µM
[25]
  concentration: 0.26 µM
[26]
  Activity: 85%
[27]
  Activity: 92%
[28]
  Activity: 91%
[29]
  Kp: 0.32
[30]
  Kp: 0.11
[31]
  Kp: 0.05
[32]
  Activity: inactive
[33]
  ED50: 30 mg/kg
[34]
  ED50: 50 mg/kg

## CCCC[C@H]1CCN([C@@H](C)C(=O)N[C@@H](Cc2cc(F)cc(F)c2)[C@H](O)[C@H]2Cc3ccccc3CN2)C1=O
[1]
  IC50: 1.6 µM

## CCC(C)[C@@]1(NC(C)=O)CCN([C@@H](CCc2ccccc2)C(=O)N[C@@H](Cc2cc(F)cc(F)c2)[C@H](O)[C@H]2C[C@@H](S(=O)(=O)c3ccccc3)CN2)C1=O (stereo partly drawn)
[2]
  IC50: 0.012 µM

## CCCN(CCC)C(=O)c1cccc(C(=O)N[C@@H](Cc2cc(F)cc(F)c2)[C@H](O)[C@H]2Cc3ccccc3CN2)c1 (stereo in doubt; 15a)
[1]
  IC50: 1.1 µM

## CC[C@@H](C)[C@H](N)C(=O)N[C@@H](CCc1ccccc1)C(=O)N[C@@H](CC(C)C)[C@@H](O)C[C@@H](C)C(=O)NCCCCc1ccccc1
[1]
  IC50: 0.088 µM
